Data reported in ChEMBL document CHEMBL1135564, “Diaryl-dialkyl-substituted pyrazoles: regioselective synthesis and binding affinity for the estrogen receptor” (Bioorg Med Chem Lett, 2002).

Experiments:
[1] = biological target: Estrogen receptor (Homo sapiens) (UniProt Q92731+P03372); assay: Selectivity ratio as relative binding affinity for estrogen receptor alpha and beta; type: protein assay
[2] = biological target: T1, Estrogen receptor (Homo sapiens) (UniProt P03372); assay: Relative binding affinity (RBA) for human Estrogen receptor alpha compared to estradiol
T1 sequence (whole entry): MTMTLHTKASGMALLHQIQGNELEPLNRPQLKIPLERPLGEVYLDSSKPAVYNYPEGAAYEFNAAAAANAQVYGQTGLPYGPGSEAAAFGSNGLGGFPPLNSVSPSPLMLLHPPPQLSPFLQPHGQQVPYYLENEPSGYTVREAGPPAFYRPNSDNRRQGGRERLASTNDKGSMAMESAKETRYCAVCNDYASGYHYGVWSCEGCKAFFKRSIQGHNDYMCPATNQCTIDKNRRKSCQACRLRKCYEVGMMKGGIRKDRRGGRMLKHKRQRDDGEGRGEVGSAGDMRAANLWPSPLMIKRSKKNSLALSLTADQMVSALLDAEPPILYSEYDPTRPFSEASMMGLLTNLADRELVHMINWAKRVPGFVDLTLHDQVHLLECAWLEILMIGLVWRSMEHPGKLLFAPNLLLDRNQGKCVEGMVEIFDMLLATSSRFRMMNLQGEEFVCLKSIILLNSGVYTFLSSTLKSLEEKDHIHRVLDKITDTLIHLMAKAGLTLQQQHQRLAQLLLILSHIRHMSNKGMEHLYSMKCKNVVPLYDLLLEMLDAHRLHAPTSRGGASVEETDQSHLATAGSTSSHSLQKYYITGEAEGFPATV

[3] = biological target: Estrogen receptor beta (Homo sapiens) (UniProt Q92731); assay: Relative binding affinity (RBA) for human Estrogen receptor beta compared to estradiol
Sequence of Estrogen receptor beta (Homo sapiens) (Q92731 whole entry): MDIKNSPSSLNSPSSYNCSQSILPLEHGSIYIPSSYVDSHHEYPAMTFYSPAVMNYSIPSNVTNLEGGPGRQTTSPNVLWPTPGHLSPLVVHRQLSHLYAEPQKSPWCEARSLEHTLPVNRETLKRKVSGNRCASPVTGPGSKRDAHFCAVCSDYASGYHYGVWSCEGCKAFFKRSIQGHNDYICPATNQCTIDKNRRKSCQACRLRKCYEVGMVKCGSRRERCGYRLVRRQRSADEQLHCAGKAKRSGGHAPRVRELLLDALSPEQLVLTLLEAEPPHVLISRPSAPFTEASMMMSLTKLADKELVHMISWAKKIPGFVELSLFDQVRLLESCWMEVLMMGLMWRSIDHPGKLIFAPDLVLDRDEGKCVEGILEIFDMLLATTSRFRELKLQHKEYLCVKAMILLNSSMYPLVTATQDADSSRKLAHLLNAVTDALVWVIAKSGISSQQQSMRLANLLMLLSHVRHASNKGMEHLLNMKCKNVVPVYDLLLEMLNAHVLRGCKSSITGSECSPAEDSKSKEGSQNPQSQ

| Ratio [1] | Affinity [2] | Affinity [3] | SMILES |
| --- | --- | --- | --- |
| 410 | 49 | 0.12 | CCCc1c(-c2ccc(O)cc2)nn(-c2ccc(O)cc2)c1-c1ccc(O)cc1 |
| 4.2 | 0.59 | 0.14 | CCc1c(-c2ccc(O)cc2)nn(-c2ccc(O)cc2)c1C1CCCCC1 |
| 8.9 | 2.1 | 0.23 | CCc1c(-c2ccc(O)cc2)nn(-c2ccc(O)cc2)c1C1CCCC1 |
| 13 | 0.56 | 0.042 | Oc1ccc(-c2nn(-c3ccc(O)cc3)c3c2CCCC3)cc1 |
| 6 | 3.6 | 0.6 | CCCc1c(-c2ccc(O)cc2)nn(-c2ccc(O)cc2)c1C1CCCC1 |
| 4 | 0.19 | 0.047 | Oc1ccc(-c2nn(-c3ccc(O)cc3)c3c2CCCCC3)cc1 |
| 2.3 | 30 | 13 | CCCc1c(-c2ccc(O)cc2)nn(C2CCCCC2)c1-c1ccc(O)cc1 |
| 9.4 | 1.1 | 0.11 | CCCc1c(-c2ccc(O)cc2)nn(-c2ccc(O)cc2)c1C1CCCCC1 |
| 1 | 74 | 71 | CCCc1c(-c2ccc(O)cc2)nn(C2CCCC2)c1-c1ccc(O)cc1 |
